According to US20250034135A1, “ANTI-APOPTOTIC PROTEIN BCL-2 INHIBITOR, PHARMACEUTICAL COMPOSITION AND USES THEREOF” (HANGZHOU HEALZEN THERAPEUTICS CO., LTD., priority 2021, published 2025):

target: BCL2 (Homo sapiens (Human), UniProt P10415); assay: Molecular level activity test of anti-apoptotic protein BCL2 (HTRF, binding to Bim peptide); details: HTRF, binding of BCL2 to Bim peptide; read-out: BCL2 nM (inhibitory activity, IC50)
Description: The detection of the binding ability between anti-apoptotic protein BCL2 and pro-apoptotic protein Bim was performed using Homogeneous Time-Resolved Fluorescence technology. The reaction of this method occurred in a white shallow 384-well plate, with a total reaction volume of 10 μL. Specifically, it included 2 μL of the compound to be tested (2% DMSO), 4 μL His-tagged recombinant protein, and 4 μL Biotin-tagged BIM protein peptide. After 1 hour of reaction, 5 μL of each Anti-His and streptavidin-tagged XL665 antibody diluents diluted with a detection buffer were added. After incubating at room temperature for 4 hours, the values were read using the Envision multifunctional microplate reader to detect the effect of the compound to be tested on the binding ability of BCL2 to Bim protein peptides.

BCL2, sequence (P10415 whole entry): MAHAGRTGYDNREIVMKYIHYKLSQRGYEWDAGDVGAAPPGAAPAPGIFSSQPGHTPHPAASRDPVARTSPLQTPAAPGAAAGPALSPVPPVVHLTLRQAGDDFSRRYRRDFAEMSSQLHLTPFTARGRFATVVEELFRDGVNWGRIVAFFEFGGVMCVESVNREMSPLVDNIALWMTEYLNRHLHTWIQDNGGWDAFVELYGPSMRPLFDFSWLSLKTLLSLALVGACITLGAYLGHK

IC50, < 0.01 µM:
CC(C)c1ccccc1C1CN(C2CCOCC2)CCN1C1CC2(C1)CN(c1cc(Oc3cnc4[nH]ccc4c3)c(C(=O)NS(=O)(=O)c3ccc(NC[C@H]4CC[C@](C)(O)CC4)c([N+](=O)[O-])c3)cn1)C2 (stereo partly drawn) [compound 052, 4-((1H-pyrrolo[2,3-b]pyrid-5-yl)oxy)-N-((4-((((1r,4r)-4-hydroxy-4-methylcyclohexyl)methyl)amino)-3-nitrophenyl)sulfonyl)-6-(6-(2-(2-isopropylphenyl)-4-(tetrahydro-2H-pyran-4-yl)piperazin-1-yl)-2-azaspiro[3.3]hept-2-yl) nicotinamide]
COc1ccc(CN2CCN(C3CC4(CCN(c5cc(Oc6cnc7[nH]ccc7c6)c(C(=O)NS(=O)(=O)c6cc([N+](=O)[O-])c(NCC7(F)CCOCC7)c7occc67)cn5)CC4)C3)[C@H](c3ccccc3C(C)C)C2)cc1 [compound 135, (R)-4-((1H-pyrrolo[2,3-b]pyrid-5-yl)oxy)-N-((7-(((4-fluorotetrahydro-2H-pyran-4-yl)methyl)amino)-6-nitrobenzofuran-4-yl)sulfonyl)-6-(2-(2-(2-isopropylphenyl)-4-(4-methoxybenzyl)piperazin-1-yl)-7-azaspiro[3.5]non-7-yl) nicotinamide]
COc1ccc(CN2CCN(C3CC4(CCN(c5cc(Oc6cnc7[nH]ccc7c6)c(C(=O)NS(=O)(=O)c6cc([N+](=O)[O-])c(NCC7(F)CCN(C(C)C)CC7)c7[nH]cnc67)cn5)CC4)C3)C(c3ccccc3C(C)C)C2)cc1 (stereo not drawn) [compound 069, 4-((1H-pyrrolo[2,3-b]pyrid-5-yl)oxy)-N-((7-(((4-fluoro-1-isopropylpiperid-4-yl)methyl)amino)-6-nitro-1H-benzo[d]imidazol-4-yl)sulfonyl)-6-(2-(2-(2-isopropylphenyl)-4-(4-methoxybenzyl)piperazin-1-yl)-7-azaspiro[3.5]non-7-yl) nicotinamide]
CC(C)c1ccccc1C1CN(C2CCOCC2)CCN1C1CC2(CCN(c3cc(Oc4cnc5[nH]ccc5c4)c(C(=O)NS(=O)(=O)c4ccc(NC[C@H]5CC[C@](C)(O)CC5)c([N+](=O)[O-])c4)cn3)CC2)C1 (stereo partly drawn) [compound 051, 4-((1H-pyrrolo[2,3-b]pyrid-5-yl)oxy)-N-((4-((((1r,4r)-4-hydroxy-4-methylcyclohexyl)methyl)amino)-3-nitrophenyl)sulfonyl)-6-(2-(2-(2-isopropylphenyl)-4-(tetrahydro-2H-pyran-4-yl)piperazin-1-yl)-7-azaspiro[3.5]non-7-yl) nicotinamide]
CC(C)c1ccccc1[C@@H]1CCCN1C1CC2(CCN(c3ccc(C(=O)NS(=O)(=O)c4cc([N+](=O)[O-])c(NC[C@H]5CC[C@](C)(O)CC5)c5[nH]cnc45)c(N4CCCOc5nc6[nH]ccc6cc54)c3)CC2)C1 [compound 085, 2-(3,4-dihydro-2H-pyrrolo[3′,2′:5,6]pyridino[2,3-b][1,4]oxazacyclohept-1 (7H)-yl)-N-((7-((((1r,4r)-4-hydroxy-4-methylcyclohexyl)methyl)amino)-6-nitro-1H-benzo[d]imidazol-4-yl)sulfonyl)-4-(2-((S)-2-(2-isopropylphenyl)pyrrolidin-1-yl)-7-azaspiro[3.5]non-7-yl)benzamide]
CC(C)c1ccccc1[C@@H]1CN(Cc2c(F)cccc2F)CCN1C1CC2(CCN(c3ccc(C(=O)NS(=O)(=O)c4cc([N+](=O)[O-])c(NC[C@H]5CC[C@](C)(O)CC5)c5c4OCO5)c(Oc4cnc5[nH]ccc5c4)c3)CC2)C1 [compound 177, 2-((1H-pyrrolo[2,3-b]pyrid-5-yl)oxy)-4-(2-((R)-4-(2,6-difluorobenzyl)-2-(2-isopropylphenyl)piperazin-1-yl)-7-azaspiro[3.5]non-7-yl)-N-((7-((((1r, 4r)-4-hydroxy-4-methylcyclohexyl)methyl)amino)-6-nitrobenzo[d][1,3]dioxocyclopent-4-yl)sulfonyl)benzamide]
COc1ccc(CN2CCN(C3CC4(CCN(c5ccc(C(=O)NS(=O)(=O)c6cc([N+](=O)[O-])c(NCC7CCOCC7)c7[nH]cnc67)c(N6CCOc7nc8[nH]ccc8cc76)c5)CC4)C3)C(c3ccccc3C(C)C)C2)cc1 (stereo not drawn) [compound 091, 2-(2,3-dihydropyrrolo[3′,2′:5,6]pyridino[2,3-b][1,4]oxazin-1 (6H)-yl)-4-(2-(2-(2-isopropylphenyl)-4-(4-methoxybenzyl)piperazin-1-yl)-7-azaspiro[3.5]non-7-yl)-N-((6-nitro-7-(((tetrahydro-2H-pyran-4-yl)methyl)amino)-1H-benzo[d]imidazol-4-yl)sulfonyl)benzamide]
CC(=O)N1CCC(F)(CNc2c([N+](=O)[O-])cc(S(=O)(=O)NC(=O)c3cc(F)c(N4CCC5(CC4)CC(N4CCC[C@H]4c4ccccc4C(C)C)C5)cc3Oc3cnc4[nH]ccc4c3)c3nc[nH]c23)CC1 [compound 028, (S)-2-((1H-pyrrolo[2,3-b]pyrid-5-yl)oxy)-N-((7-(((1-acetyl-4-fluoropiperid-4-yl)methyl)amino)-6-nitro-1H-benzo[d]imidazol-4-yl)sulfonyl)-5-fluoro-4-(2-(2-(2-isopropylphenyl)pyrrolidin-1-yl)-7-azaspiro[3.5]non-7-yl)benzamide]
COc1ccc(CN2CCN(C3CC4(CCN(c5cc(Oc6cnc7[nH]ccc7c6)c(C(=O)NS(=O)(=O)c6cc([N+](=O)[O-])c(NCC7(F)CCOCC7)c7scnc67)cn5)CC4)C3)[C@H](c3ccccc3C(C)C)C2)cc1 [compound 134, (R)-4-((1H-pyrrolo[2,3-b]pyridine-5-yl)oxy)-N-((7-(((4-fluorotetrahydro-2H-pyran-4-yl)methyl)amino)-6-nitrobenzo[d]thiazol-4-yl)sulfonyl)-6-(2-(2-(2-isopropylphenyl)-4-(4-methoxybenzyl)piperazin-1-yl)-7-azaspiro[3.5]non-7-yl) nicotinamide]
CC(C)c1ccccc1[C@@H]1CCCN1C1CC2(CCN(c3cc(Oc4cnc5[nH]ccc5c4)c(C(=O)NS(=O)(=O)c4cc([N+](=O)[O-])c(NC[C@H]5C[C@@](C)(O)C5)c5[nH]cnc45)cc3F)CC2)C1 [compound 018, 2-((1H-pyrrolo[2,3-b]pyrid-5-yl)oxy)-5-fluoro-N-((7-((((1S,3S)-3-hydroxy-3-methylcyclobutyl)methyl)amino)-6-nitro-1H-benzo[d]imidazol-4-yl)sulfonyl)-4-(2-((S)-2-(2-isopropylphenyl)pyrrolidin-1-yl)-7-azaspiro[3.5]non-7-yl)benzamide]
COc1ccc(CN2CCN(C3CC4(CCN(c5ccc(C(=O)NS(=O)(=O)c6cc([N+](=O)[O-])c(NCC7CCOCC7)c7[nH]cnc67)c(N6CCCOc7nc8[nH]ccc8cc76)c5)CC4)C3)C(c3ccccc3C(C)C)C2)cc1 (stereo not drawn) [compound 092, 2-(3,4-dihydro-2H-pyrrolo[3′,2′:5,6]pyridino[2,3-b][1,4]oxazacyclohept-1 (7H)-yl)-4-(2-(2-(2-isopropylphenyl)-4-(4-methoxybenzyl)piperazin-1-yl)-7-azaspiro[3.5]non-7-yl)-N-((6-nitro-7-(((tetrahydro-2H-pyran-4-yl)methyl)amino)-1H benzo[d]imidazol-4-yl)sulfonyl)benzamide]
COc1ccc(CN2CCN(C3CC4(C3)CN(c3ccc(C(=O)NS(=O)(=O)c5cc([N+](=O)[O-])c(NCC6(F)CCN(C(C)C)CC6)c6[nH]cnc56)c(Oc5cnc6[nH]ccc6c5)c3)C4)C(c3ccccc3C(C)C)C2)cc1 (stereo not drawn) [compound 046, 2-((1H-pyrrolo[2,3-b]pyrid-5-yl)oxy)-N-((7-(((4-fluoro-1-isopropylpiperid-4-yl)methyl)amino)-6-nitro-1H-benzo[d]imidazol-4-yl)sulfonyl)-4-(6-(2-(2-isopropylphenyl)-4-(4-methoxybenzyl)piperazin-1-yl)-2-azaspiro[3.3]hept-2-yl)benzamide]
COc1ccc(CN2CCN(C3CC4(CCN(c5ccc(C(=O)NS(=O)(=O)c6cc([N+](=O)[O-])c(NC[C@H]7CC[C@](C)(O)CC7)c7c6OC(C)(C)O7)c(Oc6cnc7[nH]ccc7c6)c5)CC4)C3)[C@H](c3ccccc3C(C)C)C2)cc1 [compound 163, 2-((1H-pyrrolo[2,3-b]pyrid-5-yl)oxy)-N-((7-((((1r, 4r)-4-hydroxy-4-methylcyclohexyl)methyl)amino)-2,2-dimethyl-6-nitrobenzo[d][1,3]dioxocyclopent-4-yl)sulfonyl)-4-(2-((R)-2-(2-isopropylphenyl)-4-(4-methoxybenzyl)piperazin-1-yl)-7-azaspiro[3.5]non-7-yl)benzamide]
CC(C)c1ccccc1[C@@H]1CN(Cc2ccc(C#N)cc2)CCN1C1CC2(CCN(c3cc(Oc4cnc5[nH]ccc5c4)c(C(=O)NS(=O)(=O)c4ccc(NCC5(F)CCOCC5)c([N+](=O)[O-])c4)cc3F)CC2)C1 [compound 199, (R)-2-((1H-pyrrolo[2,3-b]pyrid-5-yl)oxy)-4-(2-(4-(4-cyanobenzyl)-2-(2-isopropylphenyl)piperazin-1-yl)-7-azaspiro[3.5]non-7-yl)-5-fluoro-N-((4-(((4-fluorotetrahydro-2H-pyran-4-yl)methyl)amino)-3-nitrophenyl)sulfonyl)benzamide]
CC(C)c1ccccc1[C@@H]1CN(Cc2ccc(C3CC3)cc2)CCN1C1CC2(CCN(c3ccc(C(=O)NS(=O)(=O)c4cc([N+](=O)[O-])c(NC[C@H]5CC[C@](C)(O)CC5)c5c4OCO5)c(Oc4cnc5[nH]ccc5c4)c3)CC2)C1 [compound 178, 2-((1H-pyrrolo[2,3-b]pyrid-5-yl)oxy)-4-(2-((R)-4-(4-cyclopropylbenzyl)-2-(2-isopropylphenyl)piperazin-1-yl)-7-azaspiro[3.5]non-7-yl)-N-((7-((((1r, 4r)-4-hydroxy-4-methylcyclohexyl)methyl)amino)-6-nitrobenzo[d][1,3]dioxocyclopent-4-yl)sulfonyl)benzamide]
